# Results: patent US5462936A, “Benzothiazepine derivatives” (Shionogi & Co., Ltd., priority 1991, dated 1995)
# Legend:
# Calcium Channel = Calcium Channel (Oryctolagus cuniculus, UniProt P15381); assay: Calcium channel antagonism: relaxing action on extracted blood vessel (rabbit femoral artery, contracture by 50 mM KCl); details: 50 mM KCl contracture, 50% of maximum relaxing (0.1 mM papaverine)
# Description: (§1) Calcium Channel Antagonism and […] Action (Relaxing Action on Extracted Blood Vessel)
# (§2) Male rabbits weighing 2-3 kg (Rabiton, Japanese albino species) were anesthetized through intravenous administration of pentobarbital (50 mg/kg), and sacrificed by bloodletting through dissection of axillary artery. Femoral artery was extracted, connective tissue surrounding the artery was removed, and helical specimen was prepared. The specimen was suspended in an organ bath (20 cc) filled with 37° C. Krebs-Henseleit nutritious solution and bubbled with a 95% O2 +5% CO2 mixed gas. 1.5 g of resting tension was loaded on femoral artery. Isometric change of the tension of the specimen was recorded on a thermal recorder (Nippon Koden WT-685G) via F-D pickup Nippon Koden (TB611T) and Preamp (Nippon Koden). Ca-antagonism of a test compound was evaluated by observing relaxing action due to accumulative addition of the compound on the contracture caused by the application of 50 mM KCl. α-Blocking action was similarly evaluated by observing such relaxing action on the contracture caused by the application of 1 μM norepinephrine (NE). […] The concentration of a given compound, which is necessary for giving 50% of the maximum relaxing (IC50), was determined using the above system.
# femoral artery = assay: α-Blocking action: relaxing action on extracted blood vessel (rabbit femoral artery, contracture by 1 μM norepinephrine); details: Oryctolagus cuniculus, 1 μM norepinephrine contracture, 50% of maximum relaxing (0.1 mM papaverine), read-out: Relaxing action on Blood Vessel IC50, 1 μM-NE
# Description: as §1, §2
# [1] = tested on: cardiac muscle damage due to ischemia; assay: Anti-necrosis activity (left coronary ligation and reperfusion, CPK retention in left ventricle); type: in vivo, rat (Wistar); details: Rattus norvegicus; for inhibition in vivo at 1 mg/kg: 1 mg/kg iv; for inhibition in vivo at 0.3 mg/kg: 0.3 mg/kg iv
# Description: Male Sic Wistar rats weighing 200-250 g were anesthetized with urethane (1 g/kg), and ramus descendens of the left coronaria was ligated for 20 minutes and then reperfused according to the method described by Hock et al (Hock, […]., Am. Heart J., 109 222, 1985). […] For three hours after the reperfusion, the rats were subjected to heat insulation on a warming mat. After 120 minutes, the hearts were extracted, and the free walls of the left ventricles were frozen and storred until determination of CPK activity. CPK activity was determined according to the method of Bernauer, W. (Arch. int. Pharmacodyn., 231 90, 1978) after minor modification. Thus, the extracted tissue was homogenized in 10 volumes of 0.1M Tris/HCl (pH 7.5) containing 1 mM mercaptoethanol and centrifuged at 20,000 g for 20 minutes. The supernatant was used for determination of CPK activity, which was conducted using a commercially available kit (CPK-Test, Wako). CPK was determined using serum CPK as a standard and expressed with "U/mg protein". […] The degree of the inhibition was measured in terms of the CPK activity retained in the left ventricle. The test results are shown in Table 7, wherein percentage of the retention (%) at each dose was calculated based on the following equation.
# cultured cardiac cells = assay: Anti-hypoxia action on cultured cardiac cells (inhibition of CPK leakage); type: cell-based, rat (newborn Crj-SD); details: Rattus norvegicus, read-out: Anti-hypoxia Activity (%), rate of inhibition on CPK leakage
# Description: Anti-hypoxia action of the compounds of the present invention were investigated through studying their action in connection with the protection of cardiomuscular cells.
# Primary culture of cardiac cells was prepared from newborn Crj-SD rats (2-3 day old) and used in the experiment. The primary culture was prepared according to the method described by Jones R. L. et al., Am. J. Pathol., 135, 541-556, 1989. Thus, cardiac cells were isolated from ventricle muscle using collagenase and pancreatin, and then the cardiac cells were separated and purified from cell debris, erythrocytes, and fibroblasts by means of Percoll density-gradient centrifugation. The cells were spread on a culture plate at a ratio of 2-3×10^5 cells/3.5 cm plate, and the cells were cultured for two days in Dulbecco's Modified Eagle's Medium (DMEM) containing 10% Fetal Bovine Serum (FBS) in an incubator (5% CO2 /95% Air) kept at 37° C. After sufficient growth of the cardiac cells, the culture medium was changed to DMEM free from FBS, and the culture was continued additional one day. The cells thus obtained were used in the experiment.
# Hypoxia was generated using Gas Pak™ Anaerobic Chamber (BBL) which produces hypoxia by capturing residual O2 and changing it into H2 0 by the action of a H2 /CO2 generating bag and catalyst. The cardiac cell plate, wherein the culture medium had been changed to DMEM which is free from FBS and glucose, was set in the chamber, and the chamber was placed in an incubator. Anti-hypoxia activity of test compounds was determined by measuring inhibition rate of leakage of creatine phosphokinase activity into the culture medium.
# The compounds tested were all dissolved in DMSO using HCO-50 as a solubilizing agent (DMSO:HCO-50=9:1), and directly charged onto the culture plate. The final concentrations of DMSO and HCO-50 in the culture medium were adjusted to 0.09% and 0.01% respectively. CPK activity was measured by colorimetry (Wako Kit) modified from Oliver method.
# The numerical values in the table show cardiac cells-protecting activity of test compounds in terms of the rate (%) of inhibition on CPK leakage determined in connection with the test compounds when the amount of the CPK leakage for negative control (no addition of the test compounds) was defined as 100%.
# [2] = tested on: spontaneous hypertensive rats (SHR); assay: Action on blood pressure and heart rate of not-anesthetized SHR; type: in vivo, rat (SHR); details: 2 and 4 hours after administration; for Antihypertensive action (%): decrease in SBP
# Description: Action of the compounds of the invention on blood pressure and heart rate of not-anesthetized spontaneous hypertensive rats (SHR)
# Male Japanese Charles-River SHR (13-17 week old) were used in the experiment (S. Matsuda, J. Pharmacol. Method, 17 361, 1987). Systolic blood pressure (SBP) and heart rate of the animals were measured non-invasively (indirectly) using hemadynamometer for caudal artery pressure (6 channel type) before the administration of test compounds, at 2 and 4 hours after administration. Test compounds were dissolved in DMSO (100%) and orally administered. Decreased values in SBP and heart rate determined 2 and 4 hours after administration when compared with those determined before administration are shown in percentage (%) in the following table.
# Sequence of Calcium Channel (P15381 whole entry): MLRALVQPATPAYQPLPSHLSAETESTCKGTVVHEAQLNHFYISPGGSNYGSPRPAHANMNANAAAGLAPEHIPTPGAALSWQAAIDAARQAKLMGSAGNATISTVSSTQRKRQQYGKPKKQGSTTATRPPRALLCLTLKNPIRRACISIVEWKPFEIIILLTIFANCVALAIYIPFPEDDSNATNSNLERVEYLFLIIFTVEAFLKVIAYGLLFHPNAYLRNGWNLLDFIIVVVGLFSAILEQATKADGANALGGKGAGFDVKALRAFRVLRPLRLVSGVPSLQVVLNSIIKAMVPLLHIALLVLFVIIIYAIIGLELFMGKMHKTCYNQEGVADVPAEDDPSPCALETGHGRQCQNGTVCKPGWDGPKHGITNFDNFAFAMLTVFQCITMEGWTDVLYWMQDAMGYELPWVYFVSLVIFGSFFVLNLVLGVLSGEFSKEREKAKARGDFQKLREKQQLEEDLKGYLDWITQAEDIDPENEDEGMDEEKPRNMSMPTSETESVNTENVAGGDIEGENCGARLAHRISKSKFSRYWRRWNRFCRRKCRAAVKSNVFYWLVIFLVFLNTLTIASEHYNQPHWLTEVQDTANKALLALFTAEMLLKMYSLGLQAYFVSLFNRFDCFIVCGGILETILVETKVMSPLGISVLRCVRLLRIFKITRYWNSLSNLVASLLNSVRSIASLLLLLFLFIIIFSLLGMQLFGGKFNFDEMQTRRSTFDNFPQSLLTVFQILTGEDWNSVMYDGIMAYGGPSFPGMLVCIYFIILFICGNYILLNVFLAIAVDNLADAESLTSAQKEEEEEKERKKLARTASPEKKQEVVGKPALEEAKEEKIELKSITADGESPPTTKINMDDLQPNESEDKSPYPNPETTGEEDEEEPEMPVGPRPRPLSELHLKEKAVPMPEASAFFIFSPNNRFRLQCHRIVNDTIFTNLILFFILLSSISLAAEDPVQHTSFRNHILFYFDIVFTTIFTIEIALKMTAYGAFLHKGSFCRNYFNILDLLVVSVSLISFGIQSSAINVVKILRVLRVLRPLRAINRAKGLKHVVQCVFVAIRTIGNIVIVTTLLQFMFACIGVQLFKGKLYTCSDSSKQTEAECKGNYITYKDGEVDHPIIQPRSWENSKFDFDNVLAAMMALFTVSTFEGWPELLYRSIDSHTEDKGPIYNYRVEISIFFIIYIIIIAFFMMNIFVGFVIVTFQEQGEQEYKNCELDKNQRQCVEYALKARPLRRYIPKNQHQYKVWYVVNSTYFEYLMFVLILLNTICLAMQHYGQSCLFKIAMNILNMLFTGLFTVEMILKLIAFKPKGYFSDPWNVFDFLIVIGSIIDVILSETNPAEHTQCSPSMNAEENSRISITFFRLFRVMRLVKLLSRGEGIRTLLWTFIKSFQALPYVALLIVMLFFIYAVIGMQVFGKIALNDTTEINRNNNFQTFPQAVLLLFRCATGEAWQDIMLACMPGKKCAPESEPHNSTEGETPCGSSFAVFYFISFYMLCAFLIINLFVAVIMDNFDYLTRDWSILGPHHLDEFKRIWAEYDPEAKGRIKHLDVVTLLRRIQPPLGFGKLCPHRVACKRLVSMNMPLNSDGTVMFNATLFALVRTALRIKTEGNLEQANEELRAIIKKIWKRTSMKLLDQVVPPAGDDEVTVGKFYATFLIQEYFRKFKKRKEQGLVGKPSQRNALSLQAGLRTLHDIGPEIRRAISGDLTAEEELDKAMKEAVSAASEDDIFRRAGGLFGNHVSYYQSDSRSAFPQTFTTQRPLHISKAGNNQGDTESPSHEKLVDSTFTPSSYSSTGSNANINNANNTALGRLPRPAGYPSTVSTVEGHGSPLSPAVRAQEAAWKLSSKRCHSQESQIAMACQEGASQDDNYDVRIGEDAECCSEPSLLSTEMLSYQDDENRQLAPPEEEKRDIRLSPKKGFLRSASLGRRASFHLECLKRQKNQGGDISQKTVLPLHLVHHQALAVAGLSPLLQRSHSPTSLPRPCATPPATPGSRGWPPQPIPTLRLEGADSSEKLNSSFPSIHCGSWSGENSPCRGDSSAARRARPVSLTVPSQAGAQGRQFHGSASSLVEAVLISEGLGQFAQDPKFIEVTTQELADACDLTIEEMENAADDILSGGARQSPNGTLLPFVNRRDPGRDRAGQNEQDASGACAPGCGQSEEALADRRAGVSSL
# Sequence of Calcium Channel (P13806 27-960 partner limits assumed): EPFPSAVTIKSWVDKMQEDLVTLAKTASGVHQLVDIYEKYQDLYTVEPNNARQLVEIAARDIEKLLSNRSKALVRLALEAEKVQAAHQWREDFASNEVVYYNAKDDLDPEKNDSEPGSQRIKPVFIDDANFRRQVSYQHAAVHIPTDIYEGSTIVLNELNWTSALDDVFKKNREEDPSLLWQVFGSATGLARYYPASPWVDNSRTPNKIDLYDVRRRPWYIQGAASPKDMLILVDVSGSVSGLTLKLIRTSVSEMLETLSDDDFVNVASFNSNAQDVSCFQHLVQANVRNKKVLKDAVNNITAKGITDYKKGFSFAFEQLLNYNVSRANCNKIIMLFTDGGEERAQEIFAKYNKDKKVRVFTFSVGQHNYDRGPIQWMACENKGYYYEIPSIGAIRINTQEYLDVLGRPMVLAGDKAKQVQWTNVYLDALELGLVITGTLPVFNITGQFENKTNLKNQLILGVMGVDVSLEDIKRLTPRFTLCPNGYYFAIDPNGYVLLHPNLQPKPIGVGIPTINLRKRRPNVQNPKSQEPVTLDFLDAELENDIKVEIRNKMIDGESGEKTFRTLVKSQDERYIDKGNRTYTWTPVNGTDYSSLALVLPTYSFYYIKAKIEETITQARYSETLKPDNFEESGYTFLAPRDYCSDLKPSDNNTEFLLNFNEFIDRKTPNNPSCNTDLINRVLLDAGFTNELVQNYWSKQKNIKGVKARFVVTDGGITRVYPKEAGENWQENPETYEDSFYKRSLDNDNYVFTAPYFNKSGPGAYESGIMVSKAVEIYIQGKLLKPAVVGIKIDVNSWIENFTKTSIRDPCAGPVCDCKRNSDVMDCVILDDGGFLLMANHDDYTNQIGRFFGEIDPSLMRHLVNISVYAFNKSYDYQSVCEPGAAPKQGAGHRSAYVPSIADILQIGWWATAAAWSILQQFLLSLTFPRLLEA
# Sequence of Calcium Channel (P13806 961-1106 partner limits assumed): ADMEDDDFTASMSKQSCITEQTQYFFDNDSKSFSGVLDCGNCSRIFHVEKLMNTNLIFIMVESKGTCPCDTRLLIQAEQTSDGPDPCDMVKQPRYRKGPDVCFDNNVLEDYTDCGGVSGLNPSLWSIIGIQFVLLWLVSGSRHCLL
SMILES,IC50 (Calcium Channel) [µM],IC50 (femoral artery) [µM],inhibition in vivo at 1 mg/kg [1] [%],inhibition at 1 µM (cultured cardiac cells) [%],inhibition at 10 µM (cultured cardiac cells) [%],Decrease of heart rate (%) ([2]; 60 mg/kg PO),Antihypertensive action (%) ([2]; 60 mg/kg PO),Decrease of heart rate (%) ([2]; 30 mg/kg PO),Antihypertensive action (%) ([2]; 30 mg/kg PO),inhibition in vivo at 0.3 mg/kg [1] [%],inhibition in vivo at 0.1 mg/kg ([1]; 0.1 mg/kg iv) [%]
"COc1ccc([C@@H]2Sc3cc(OC)ccc3N(CCCN3CCN(c4ccccc4OC)CC3)C(=O)[C@@H]2OC(C)=O)cc1 [Compound I-35, (2S-cis)-3-Acetoxy-5-[3-(4-(2-methoxyphenyl)-1-piperazinyl)propyl]-2,3-dihydro-2-(4-methoxyphenyl)-8-methoxy-l,5-benzothiazepin-4(5H)-one]",0.12,0.03,37,,,,,,,,
"COc1ccc([C@@H]2Sc3ccccc3N(CCN(C)C)C(=O)[C@@H]2OC(C)=O)cc1 [Diltiazem, reference compound]",,13.3,13,10,29,15,11,,,,
"COc1ccc([C@@H]2Sc3cc(Cl)ccc3N(CCCN3CCN(C(c4ccccc4)c4ccc(Cl)cc4)CC3)C(=O)[C@@H]2OC(C)=O)cc1 (stereo partly drawn) [Compound I-22, (2S-cis)-3-Acetoxy-5-[3-(4-(4-chlorobenzhydryl)-1-piperazinyl)propyl]-2,3-dihydro-2-(4-methoxyphenyl)-8-chloro-l,5-benzothiazepin-4(5H)-one]",0.34,,,25.7,73.9,,,9.4,18,45,
"COc1ccc([C@@H]2Sc3cc(Cl)ccc3N(CCCN3CCN(C(c4ccc(F)cc4)c4ccc(F)cc4)CC3)C(=O)[C@@H]2OC(C)=O)cc1 (relative stereo) [Compound I-15, 3-Acetoxy-5-[3-(4-(4,4'-difluorobenzhydryl) -1-piperazinyl)propyl]-2,3-dihydro-2-(4-methoxyphenyl)-8-chloro-1,5-benzothiazepin-4(5H)-one]",0.057,0.6,,,76,6.5,17,,,,
"COc1ccc([C@@H]2Sc3cc(Cl)ccc3N(CCCN3CCN(c4ccccc4OC)CC3)C(=O)[C@@H]2OC(C)=O)cc1 (relative stereo) [Compound I-8, 3-Acetoxy-5-[3-(4-(2-methoxyphenyl)-piperazinyl)propyl]-2,3-dihydro-2-(4-methoxyphenyl)-8-chloro-1,5-benzothiazepin-4(5H)-one]",0.28,0.06,,17,70,,,3.2,15,29,
"COc1ccc([C@@H]2Sc3cc(Cl)ccc3N(CCCN3CCN(c4ccccc4OC)CC3)C(=O)[C@@H]2OC(C)=O)cc1.Cl [Compound I-18, (2S-cis)-3-Acetoxy-5-[3-(4-(2-methoxyphenyl) -1-piperazinyl)propyl]-2,3-dihydro-2(4-methoxyphenyl) -8-chloro-1,5-benzothiazepin-4(5H)-one hydrochloride]",0.25,0.037,,23.7,73.9,,,7.0,18,42,30
"COc1ccc([C@@H]2Sc3cc(C)ccc3N(CCCN3CCN(c4ccccc4OC)CC3)C(=O)[C@@H]2OC(C)=O)cc1 [Compound I-36, (2S-cis)-3-Acetoxy-5-[3-(4-(2methoxyphenyl) - 1-piperazinyl)propyl]-2,3-dihydro-2-(4-methoxyphenyl)-8-methyl-1,5-benzothiazepin-4 (5H)-one]",0.14,0.02,30,,,,,,,,
